Results on three compounds are retold here after patent publication US20250290151A1, “Differentially-Methylated Regions of the Genome Useful as Markers of Embryo-Adult Transitions” (priority 2019, published 2025).

One assay deals with adult bone marrow MSCs. Nature of the assay: H2O2-mediated apoptosis (survival) before and after knock-down of COX7A1. It is filed as cell-based, human. Particulars: 300 uM H2O2. The procedure: (§1) Similarly, normal pre-EFT vascular progenitors were more sensitive to apoptosis at 37 uM of camptothecin (39% apoptosis) compared to adult aortic endothelial counterparts (25.5% apoptosis). In addition, H2O2-mediated apoptosis was measured in post-EFT cells (adult bone marrow MSCs) before and after knock-down of COX7A1 expression.

Assay [1] has as its system adult aortic endothelial counterparts. Nature of the assay: TUNEL apoptosis assay after camptothecin, adult aortic endothelial cells. It is filed as cell-based, human. Particulars: 37 uM camptothecin, 24 h. On the procedure:
(§2) The pre-EFT (DC) fibrosarcoma cell line HT1080 was infected with lentivirus expressing COX7A1 together with a control line expressing green fluorescent protein (GFP). The resulting cells were treated with 0, 0.37, and 37 uM camptothecin to generate a DNA damage response and apoptosis. TUNEL (TdT-mediated dUTP-X nick end labeling) adds label to termini of ssDNA and dsDNA. Readout used was fluorescent nuclei read by microscopy. In brief, cell lines were cultured in 96-well plates at 5000 cells/well and grown over night. The following day, the growth medium was removed and replaced with growth medium containing compounds and controls. After 24 h, the cells are fixed for 20 minutes using 4% PFA. Plates are stored at 4 deg C. in PBS until processing. Fixed cells were permeabilized with 0.1% Triton X-100 and 0.1% sodium citrate for 2 minutes on ice. […] 9 images per well were collected and analyzed for total cell number and number of cells stained for apoptosis.
as §1

Assay [2] concerns normal pre-EFT vascular progenitors. Nature of the assay: TUNEL apoptosis assay after camptothecin, pre-EFT vascular progenitors. It is filed as cell-based, human. The following applies: 37 uM camptothecin, 24 h. The procedure:
as §2, §1

The test system of assay [3] is fibrosarcoma cell line HT1080. Nature of the assay: TUNEL apoptosis assay after camptothecin, HT1080 expressing COX7A1 vs GFP control. It is filed as cell-based, human. The following applies: 0, 0.37 and 37 uM camptothecin, 24 h, p<0.05. On the procedure: as §2, §1
Assay [4] concerns xenograft breast tumors derived from the breast cancer cell line MCF-7. Nature of the assay: COX7A1 expression in MCF-7 xenograft breast tumors after doxorubicin. It is filed as in vivo. Particulars: MCF-7 xenograft breast tumors treated with doxorubicin; controls 3.84 and 4.52. From the text: The present invention instead teaches the contrary, that these surviving CSCs are instead cancer cells that display a post-EFT pattern (i.e. a more mature pattern) of gene expression. Using the expression of the gene COX7A1 as a transcriptional marker of pre- or post-EFT cells wherein COX7A1 is expressed in post-EFT cells, we observe that pancreatic cancer with ablated KRAS leading to pancreatic CSCs, results in increased COX7A1 and CAT (also a post-EFT marker), not decreased as predicted by current models (FIG. 10). In addition, the treatment of xenograft breast tumors derived from the breast cancer cell line MCF-7 with the anti-tumor anthracycline antibiotic doxorubicin results in COX7A1 RFU levels of 5.04 and 5.57 compared to controls of 3.84 and 4.52 in controls, again indicative of the more mature state of surviving cells following chemotherapy. In addition, in the example of rectal cancer, levels of COX7A1 expression were 92.7 RFUs following radiotherapy compared to 75 RFUs in untreated rectal cancer (p<0.05). […]

Several values for one entry are separate records, joined by “and”; a condition that tells them apart may be missing. Equal values may be shown once.

On to `OO` [H2O2], for which the cells surviving in the assay on adult bone marrow MSCs (MSCs after knockdown of COX7A1 (iTR modality), p<0.05) is given as 59.8%; with adult bone marrow MSCs (normal adult bone marrow MSCs), 82.4%.

Consider `CC[C@@]1(O)C(=O)OCc2c1cc1n(c2=O)Cc2cc3ccccc3nc2-1` [camptothecin], for which the apoptosis in assay [1] came to 25.5%; in assay [2] it was 39%. In assay [3], the “sensitivity to apoptosis (TUNEL)” value is recorded as “significantly decreased sensitivity to apoptosis”.

For `COc1cccc2c1C(=O)c1c(O)c3c(c(O)c1C2=O)C[C@@](O)(C(=O)CO)C[C@@H]3O[C@H]1C[C@H](N)[C@H](O)[C@H](C)O1` [doxorubicin], the “COX7A1 RFU levels” value in assay [4] was 5.04 RFU and 5.57 RFU.
